{"source": "the Kinase Knowledgebase extract (Sharma et al. 2016)", "note": "pIC50: −log10 of the molar value.", "data": [{"biological_target": "PIK3CA (human) (UniProt P42336)", "sequence (P42336 whole entry, looked up)": "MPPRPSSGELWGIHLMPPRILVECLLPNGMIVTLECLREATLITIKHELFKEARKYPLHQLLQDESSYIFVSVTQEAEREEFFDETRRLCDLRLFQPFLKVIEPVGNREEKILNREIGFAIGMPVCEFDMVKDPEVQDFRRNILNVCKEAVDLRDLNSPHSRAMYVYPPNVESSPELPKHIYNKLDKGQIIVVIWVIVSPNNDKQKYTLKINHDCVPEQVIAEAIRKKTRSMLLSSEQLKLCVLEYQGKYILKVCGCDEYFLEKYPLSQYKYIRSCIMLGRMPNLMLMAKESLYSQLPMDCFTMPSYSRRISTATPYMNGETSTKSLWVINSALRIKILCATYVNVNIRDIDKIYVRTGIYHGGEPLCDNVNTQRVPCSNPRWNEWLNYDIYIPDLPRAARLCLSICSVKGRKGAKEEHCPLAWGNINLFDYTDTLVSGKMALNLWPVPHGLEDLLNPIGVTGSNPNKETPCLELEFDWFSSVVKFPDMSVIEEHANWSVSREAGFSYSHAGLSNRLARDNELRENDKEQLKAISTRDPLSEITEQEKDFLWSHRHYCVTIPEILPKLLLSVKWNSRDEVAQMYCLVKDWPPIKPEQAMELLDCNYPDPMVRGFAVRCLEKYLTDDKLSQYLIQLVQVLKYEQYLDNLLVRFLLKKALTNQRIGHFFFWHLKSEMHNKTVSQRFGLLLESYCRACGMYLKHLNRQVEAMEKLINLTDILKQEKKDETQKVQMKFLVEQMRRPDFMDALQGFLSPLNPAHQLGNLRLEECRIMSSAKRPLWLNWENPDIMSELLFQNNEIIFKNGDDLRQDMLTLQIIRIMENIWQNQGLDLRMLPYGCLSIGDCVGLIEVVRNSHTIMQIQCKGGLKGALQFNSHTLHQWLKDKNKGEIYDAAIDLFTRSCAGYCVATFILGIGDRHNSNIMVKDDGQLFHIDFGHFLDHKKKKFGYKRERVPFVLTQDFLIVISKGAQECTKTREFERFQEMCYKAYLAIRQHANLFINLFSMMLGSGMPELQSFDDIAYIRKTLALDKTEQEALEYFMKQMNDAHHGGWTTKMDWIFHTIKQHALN", "assay": "Assessment of PI3KCA Kinase Activity", "values": [{"molecule": "Cc1nn2ccccc2c1-c1nc(-c2cnc3ccccc3c2)c(-c2nc[nH]n2)s1", "pIC50": "> 7.00"}, {"molecule": "CC(C)(C)OC(=O)Nc1cc(-c2sc(-c3nnc[nH]3)c(-c3ccc(Cl)cc3Cl)c2C#N)ccn1", "pIC50": "6.00 to 7.00"}, {"molecule": "Cc1nn2ccccc2c1-c1nc(-c2cc(C=O)ccc2Cl)c(-c2nnc[nH]2)s1", "pIC50": "> 7.00"}, {"molecule": "O=C(Nc1cc(-c2cc(-c3ccc(Cl)cc3Cl)c(-c3ncc[nH]3)s2)ccn1)C1CC1", "pIC50": "> 7.00"}, {"molecule": "Cc1ccc(-c2nc(-c3c(C)nn4ccccc34)sc2-c2nc[nH]n2)s1", "pIC50": "> 7.00"}, {"molecule": "CC(=O)Nc1cc(-c2nc(-c3ccc(O)cc3)c(-c3ncc[nH]3)s2)ccn1", "pIC50": "6.00 to 7.00"}, {"molecule": "Cc1nn2ccccc2c1-c1nc(-c2c(F)cccc2F)c(-c2nc[nH]n2)s1", "pIC50": "> 7.00"}, {"molecule": "CC(=O)Nc1cc(-c2nc(-c3ccc(Cl)c(Cl)c3)c(-c3ncc[nH]3)s2)ccn1", "pIC50": "> 7.00"}, {"molecule": "Cc1nn2ccc(OCCN3CCN(C)CC3)cc2c1-c1nc(-c2ccccc2)c(-c2nc[nH]n2)s1", "pIC50": "> 7.00"}, {"molecule": "CC(=O)N1CCN(Cc2ccc3nc(C)c(-c4nc(-c5ccccc5)c(-c5nc[nH]n5)s4)n3c2)CC1", "pIC50": "> 7.00"}, {"molecule": "CC(=O)Nc1cc(-c2sc(-c3cnc[nH]3)c(-c3ccc(Cl)cc3Cl)c2C#N)ccn1", "pIC50": "> 7.00"}, {"molecule": "Cc1nn2ccccc2c1-c1nc(C2CCCCC2)c(-c2nnc[nH]2)s1", "pIC50": "> 7.00"}, {"molecule": "CC(=O)Nc1cc(-c2nc(-c3c(C)cccc3C)c(-c3nnc[nH]3)s2)ccn1", "pIC50": "6.00 to 7.00"}, {"molecule": "Clc1ccc(-c2cc(-c3ncnc4[nH]ccc34)sc2-c2ncc[nH]2)c(Cl)c1", "pIC50": "> 7.00"}, {"molecule": "CC(=O)Nc1cc(-c2nc(-c3cccc(OC(F)(F)F)c3)c(-c3ncc[nH]3)s2)ccn1", "pIC50": "6.00 to 7.00"}, {"molecule": "Cc1nn2ccc(OCCN3CCC(O)CC3)cc2c1-c1nc(-c2ccccc2)c(-c2nc[nH]n2)s1", "pIC50": "> 7.00"}, {"molecule": "Cc1nn2ccccc2c1-c1nc(-c2cccs2)c(-c2nc[nH]n2)s1", "pIC50": "> 7.00"}, {"molecule": "N#Cc1c(-c2ccnc(N)c2)sc(-c2ccn[nH]2)c1-c1ccc(Cl)cc1Cl", "pIC50": "6.00 to 7.00"}, {"molecule": "Cc1nn2ccc(OCCCN3CCOCC3)cc2c1-c1nc(-c2ccccc2)c(-c2nc[nH]n2)s1", "pIC50": "> 7.00"}, {"molecule": "COc1ccc(Cl)c(-c2nc(-c3ccnc(NC(C)=O)c3)sc2-c2ncc[nH]2)c1", "pIC50": "> 7.00"}, {"molecule": "CC(=O)Nc1cc(-c2nc(-c3ccsc3)c(-c3ncc[nH]3)s2)ccn1", "pIC50": "6.00 to 7.00"}, {"molecule": "CC(=O)Nc1nc2c(-c3cc(-c4ccc(Cl)cc4Cl)c(-c4ncc[nH]4)s3)ncnc2s1", "pIC50": "6.00 to 7.00"}, {"molecule": "CNC(=O)Nc1cc(-c2sc(-c3ccn[nH]3)c(-c3ccc(Cl)cc3Cl)c2C#N)ccn1", "pIC50": "6.00 to 7.00"}, {"molecule": "Cc1nn2ccc(OCCNC(=O)c3cn(C)cn3)cc2c1-c1nc(-c2ccccc2)c(-c2nc[nH]n2)s1", "pIC50": "> 7.00"}, {"molecule": "O=C1CCc2c(-c3cc(-c4ccc(Cl)cc4Cl)c(-c4ncc[nH]4)s3)ccnc2N1", "pIC50": "> 7.00"}, {"molecule": "COC(=O)Nc1cc(-c2sc(-c3ncc[nH]3)c(-c3ccc(Cl)cc3Cl)c2C#N)ccn1", "pIC50": "> 7.00"}, {"molecule": "Cc1nc2ccc(CN(CCN)Cc3ccccc3)cn2c1-c1nc(-c2ccccc2)c(-c2nnc[nH]2)s1", "pIC50": "> 7.00"}, {"molecule": "CC(=O)Nc1cc(-c2nc(-c3ccc(C(C)(C)C#N)cc3)c(-c3ncc[nH]3)s2)ccn1", "pIC50": "6.00 to 7.00"}, {"molecule": "Cc1nn2ccsc2c1-c1nc(-c2ccccc2)c(-c2nccs2)s1", "pIC50": "> 7.00"}, {"molecule": "O=C1CCc2c(-c3nc(-c4ccc(Cl)cc4Cl)c(-c4ncc[nH]4)s3)ccnc2N1", "pIC50": "> 7.00"}, {"molecule": "Cc1nn2ccc(OCCN3CCOCC3)cc2c1-c1nc(-c2ccccc2)c(-c2nnc[nH]2)s1", "pIC50": "> 7.00"}, {"molecule": "CNc1nccc(-c2sc(-c3nnc[nH]3)c(-c3ccc(Cl)cc3Cl)c2C#N)n1", "pIC50": "> 7.00"}, {"molecule": "COc1cccc(Cl)c1-c1nc(-c2c(C)nn3ccccc23)sc1-c1nc[nH]n1", "pIC50": "> 7.00"}, {"molecule": "Cc1nn2ccsc2c1-c1nc(-c2ccccc2)c(-c2nnn[nH]2)s1", "pIC50": "6.00 to 7.00"}, {"molecule": "Cc1cc(C(=O)Nc2cc(-c3sc(-c4nnc[nH]4)c(-c4ccc(Cl)cc4Cl)c3C#N)ccn2)no1", "pIC50": "6.00 to 7.00"}, {"molecule": "Clc1ccc(-c2nc(-c3ccnc4[nH]ccc34)sc2-c2ncc[nH]2)c(Cl)c1", "pIC50": "> 7.00"}, {"molecule": "CC(=O)Nc1cc(-c2nc(-c3ccc4c(c3)OCO4)c(-c3ncc[nH]3)s2)ccn1", "pIC50": "> 7.00"}, {"molecule": "CNC(=O)Nc1cc(-c2sc(-c3ncc[nH]3)c(-c3ccc(Cl)cc3Cl)c2C#N)ccn1", "pIC50": "> 7.00"}, {"molecule": "CCOc1nc(-c2ccnc(NC(=O)c3ccc(OC)cc3)c2)sc1-c1nnc[nH]1", "pIC50": "6.00 to 7.00"}, {"molecule": "Cc1ccc(-c2nc(-c3c(C)nn4ccccc34)sc2-c2nc[nH]n2)o1", "pIC50": "> 7.00"}, {"molecule": "CC(=O)Nc1cc(-c2nc(-c3ccc(C(F)(F)F)cc3)c(-c3ncc[nH]3)s2)ccn1", "pIC50": "> 7.00"}, {"molecule": "Cc1nn2ccccc2c1-c1cc(-c2ccc(Cl)cc2Cl)c(-c2ncc[nH]2)s1", "pIC50": "> 7.00"}, {"molecule": "CCCC(=O)Nc1cc(-c2nc(OCC)c(-c3nnc[nH]3)s2)ccn1", "pIC50": "6.00 to 7.00"}, {"molecule": "N#Cc1c(-c2ccnc(F)c2)sc(-c2nnc[nH]2)c1-c1ccc(Cl)cc1Cl", "pIC50": "6.00 to 7.00"}, {"molecule": "CC(=O)Nc1cc(-c2nc(-c3ccc(Oc4ccccc4)cc3)c(-c3ncc[nH]3)s2)ccn1", "pIC50": "6.00 to 7.00"}, {"molecule": "CC(=O)Nc1cc(-c2nc(-c3ccc(CO)cc3)c(-c3ncc[nH]3)s2)ccn1", "pIC50": "6.00 to 7.00"}, {"molecule": "N#Cc1c(-c2ccnc(N)c2)sc(-c2nnc[nH]2)c1-c1ccc(Cl)cc1Cl", "pIC50": "> 7.00"}, {"molecule": "CC(=O)Nc1cc(-c2cc(-c3ccc(Cl)cc3Cl)c(-c3ncc[nH]3)s2)ncn1", "pIC50": "> 7.00"}, {"molecule": "N#Cc1c(-c2ccnc(NC(=O)c3cccnc3)c2)sc(-c2nnc[nH]2)c1-c1ccc(Cl)cc1Cl", "pIC50": "6.00 to 7.00"}, {"molecule": "CC(=O)Nc1cc(-c2nc(-c3cc(CO)ccc3Cl)c(-c3ncc[nH]3)s2)ccn1", "pIC50": "> 7.00"}, {"molecule": "Cc1nc2ccc(CNCCCN)cn2c1-c1nc(-c2ccccc2)c(-c2nnc[nH]2)s1", "pIC50": "> 7.00"}, {"molecule": "CC(=O)Nc1cc(-c2nc(-c3ccccc3)c(-c3ncc[nH]3)s2)ccn1", "pIC50": "6.00 to 7.00"}, {"molecule": "Cc1nc2sccn2c1-c1nc(-c2ccccc2)c(-c2nnc[nH]2)s1", "pIC50": "> 7.00"}, {"molecule": "Cc1nn2ccccc2c1-c1nc(-c2ccc(F)cc2F)c(-c2nc[nH]n2)s1", "pIC50": "> 7.00"}, {"molecule": "Cc1nn2ccc(N3CCOCC3)cc2c1-c1nc(-c2ccccc2)c(-c2nc[nH]n2)s1", "pIC50": "> 7.00"}, {"molecule": "CC(C)(C)OC(=O)Nc1cc(-c2sc(-c3ncc[nH]3)c(-c3ccc(Cl)cc3Cl)c2C#N)ccn1", "pIC50": "> 7.00"}, {"molecule": "N#Cc1c(-c2ccnc(NC(=O)c3cnccn3)c2)sc(-c2nnc[nH]2)c1-c1ccc(Cl)cc1Cl", "pIC50": "6.00 to 7.00"}, {"molecule": "COc1ncccc1-c1nc(-c2ccnc(NC(C)=O)c2)sc1-c1nnc[nH]1", "pIC50": "6.00 to 7.00"}, {"molecule": "CC(C)(C)Nc1nc2c(-c3cc(-c4ccc(Cl)cc4Cl)c(-c4ncc[nH]4)s3)ncnc2s1", "pIC50": "> 7.00"}, {"molecule": "CC(C)CC(=O)Nc1cc(-c2sc(-c3ncc[nH]3)c(-c3ccc(Cl)cc3Cl)c2C#N)ccn1", "pIC50": "> 7.00"}, {"molecule": "CCOc1nc(-c2ccnc(NC(=O)c3ccco3)c2)sc1-c1nnc[nH]1", "pIC50": "6.00 to 7.00"}, {"molecule": "CC(=O)Nc1cc(-c2sc(-c3nnc[nH]3)c(-c3ccc(Cl)cc3Cl)c2C#N)ccn1", "pIC50": "> 7.00"}, {"molecule": "CCOc1nc(-c2ccnc(NC(=O)Cc3cccs3)c2)sc1-c1nnc[nH]1", "pIC50": "6.00 to 7.00"}, {"molecule": "CC(=O)Nc1cc(-c2nc(-c3ccc(N(C)C)nc3)c(-c3ncc[nH]3)s2)ccn1", "pIC50": "6.00 to 7.00"}, {"molecule": "CC(=O)Nc1cc(-c2nc(-c3ccc(C)cc3)c(-c3ncc[nH]3)s2)ccn1", "pIC50": "> 7.00"}, {"molecule": "CC(=O)Nc1cc(-c2sc(-c3nccn3Cc3ccc(F)cc3)c(-c3ccc(Cl)cc3Cl)c2C#N)ccn1", "pIC50": "6.00 to 7.00"}, {"molecule": "N#Cc1c(-c2ccnc(NC(=O)C3CC3)c2)sc(-c2ncc[nH]2)c1-c1ccc(Cl)cc1Cl", "pIC50": "> 7.00"}, {"molecule": "Cc1nn2ccsc2c1-c1nc(-c2nc[nH]n2)c(-c2ccccc2)s1", "pIC50": "6.00 to 7.00"}]}]}
